Test results published in US20180312463A1 (The Procter & Gamble Company, priority 2015, published 2018).
Structures can show the parent of a compound that is named as a salt.

tested on: not given; test: not given; conditions: in vivo; cited from earlier work

SMILES | cooling threshold (concentration where the cooling effect could be clearly recognized)
CC(C)[C@@H]1CC[C@@H](C)C[C@@H]1O [d-neomenthol] | about 25,000 ppb
CC(C)[C@@H]1CC[C@@H](C)C[C@H]1O [L-menthol] | about 800 ppb
CC(C)[C@@H]1CC[C@@H](C)C[C@@H]1O [Molecule 1-neomenthol, 1-neomenthol] | about 3,000 ppb

tested on: not listed separately; test: Sensory evaluation of coolant activity: panelists brushed with dentifrice and rated cooling intensity; type: in vivo, human; conditions: dentifrice, up to 12 hours after brushing
Method: Dentifrices were prepared using conventional methods, such as the protocols described in U.S. Pat. No. 8,747,814, which contained no coolant (SAMPLE A) or having a coolant from TABLE 7 (SAMPLES B and C), in a flavor (peppermint) at 10 parts per million (ppm).
Sensory evaluation studies of coolant activity were conducted using a methodology patterned after the techniques described in M.C. Meilgaard, et al., Sensory Evaluation Techniques, 4th Ed. (2007). Five panelists brushed with a dentifrice from TABLE 8, having no coolant (SAMPLE A) or having a coolant from TABLE 7 (SAMPLES B and C), for two minutes, in a flavor (peppermint) at 10 parts per million (ppm). After brush expectoration, panelists then rinsed their mouth with 15 ml of an aqueous rinse and expectorated.

SMILES | cooling response over time after brushing (summary of TABLE 9)
CC(C)[C@@H]1CC[C@@H](C)C[C@H]1C(=O)NC[C@@H](NC(=O)[C@@H](C)N)c1ccccc1 [Molecule 17, (1R,2S,5R)-N-((S)-2-((R)-2-Aminopropanamido)-2-phenylethyl)-2-isopropyl-5-methylcyclohexane-1-carboxamide] | high cooling over the course of 12 hours
CC(C)[C@@H]1CC[C@@H](C)C[C@H]1C(=O)NC[C@H](NC(=O)[C@@H](C)N)c1ccccc1 [Molecule 33, (1R,2S ,5R)-N-((R)-2-((R)-2-Aminopropanamido)-2-phenylethyl)-2-isopropyl-5-methylcyclohexane-1-carboxamide] | trailed off after 30 minutes

molecular target: human TRPM8; test: TRPM8 Protocol-FLIPR Assay (EC50 analysis of sensate analogs using TRPM8 activation); type: cell-based; conditions: HEK-293 cells stably transfected with human TRPM8, intracellular Ca2+ by Fluo-4 AM fluorescence
Method: (§1) The term “TRPM8 agonist”, as used herein, refers to any compound, which when added to a TRPM8 receptor, according to the FLIPR method, as discussed herein, produces any increase in fluorescence over background.
(§2) TRPM8 Protocol-FLIPR Assay
(§3) To determine whether TRPM8 is activated, the intracellular calcium ion (Ca^2+) level was measured from transfected cells with the TRPM8 receptor sequence (SEQ ID NO:). […] Trypsin was inactivated by addition of 8 ml growth medium. Cells were transferred to a 50 ml tube and centrifuged at 850 rpm for 3 minutes to remove medium. After centrifugation, a pellet of cells was formed in the bottom of the tube separating them from the supernatant solution. […] Fluo-4 AM is a fluorescent dye used for quantifying cellular Ca^2+ concentrations in the 100 nM to 1 microM range. At the end of 30 minutes, 45 ml of assay buffer (1× HBSS (Hank's Balanced Salt Solution), 20 mM HEPES (4-(2-Hydroxyethyl)-1-piperazineethanesulfonic acid)) was added to wash cells and the resulting mixture was then centrifuged at 850 rpm for 3 minutes to remove excess buffer and Fluo-4 AM calcium indicator.
(§4) The pelleted cells were re-suspended in 10 ml assay buffer and 90 μl aliquots (50,000 cells) per well delivered to a 96-well assay plate containing 10 μl of test compounds (1 mM in assay buffer, final concentration 100 μM) or buffer control and incubated at room temperature for 30 minutes. After 30 minutes, a plate was placed into a fluorometric imaging plate reader (FLIPR384 from Molecular Devices, Sunnyvale, Calif.) and basal fluorescence recorded (excitation wave length 488 nm and emission wave length 510 nm). Then 20 μl of 100 mM of TRPM8 agonist WS5 coolant in the assay buffer was added and fluorescence recorded. For determining the direct effect of test compounds on TRPM8, fluorescence was measured immediately after addition of each compound (TABLE 7).

SMILES | EC50 [nM]
CC(C)[C@@H]1CC[C@@H](C)C[C@H]1C(=O)NC[C@@H](NC(=O)[C@H](C)N)C1CCCCC1 | 28.3
CC(C)[C@@H]1CC[C@@H](C)C[C@H]1C(=O)NCCNC(=O)CNC(=O)OC(C)(C)C [Example 49, tert-butyl (2-((2-((1R,2S,5R)-2-isopropyl-5-methylcyclohexane-1-carboxamido)ethyl)amino)-2-oxoethyl)carbamate] | 40000

Results, then the compound that gave them:

EC50 [nM] | SMILES
20 | CC(C)[C@@H]1CC[C@@H](C)C[C@H]1C(=O)NC[C@@H](NC(=O)CN)c1ccccc1Cl
374 | CC(C)[C@@H]1CC[C@@H](C)C[C@H]1C(=O)NC[C@H](O)c1ccccc1 [Example 29]
2.7 | CC(C)[C@@H]1CC[C@@H](C)C[C@H]1C(=O)NC[C@@H](NC(=O)[C@H](C)N)c1ccccc1 [Molecule 2]
9 | CC(C)[C@@H]1CC[C@@H](C)C[C@H]1C(=O)NC[C@@H](NC(=O)[C@H](C)N)c1ccccc1 [Example 7]
58 | CC(C)[C@@H]1CC[C@@H](C)C[C@H]1C(=O)NC[C@H](Cc1ccccc1)NC(=O)CN [Example 16]

same assay, conditions: HEK-293 cells stably transfected with human TRPM8, unit inferred

SMILES | EC50 [nM]
CC(C)[C@@H]1CC[C@@H](C)C[C@H]1C(=O)NC[C@@H](NC(=O)CN)c1ccccc1 [Molecule 1] | < 2
CC(C)[C@@H]1CC[C@@H](C)C[C@H]1C(=O)NC[C@@H](NC(=O)[C@H](C)NC(=O)OC(C)(C)C)c1ccccc1 [Example 43, dihydrochloride] | 3000

molecular target: human TRPM8 (UniProt Q8R4D5); test: as above; type: cell-based; conditions: HEK-293 cells stably transfected with human TRPM8, intracellular Ca2+ by Fluo-4 AM fluorescence
Method: as §1, §2, §3, §4

SMILES | TRPM8 (EC50 values) | EC50 [nM]
CCCCCCCCCCCCCCCC(=O)N[C@H](CNC(=O)[C@@H]1C[C@H](C)CC[C@H]1C(C)C)c1ccccc1 [Molecule 54] | Too high to measure | 
CC(C)[C@@H]1CC[C@@H](C)C[C@H]1C(=O)NC[C@@H](NC(=O)[C@@H](C)NC(=O)OC(C)(C)C)c1ccccc1 [Molecule 59] | Too high to measure | 
CC(C)[C@@H]1CC[C@@H](C)C[C@H]1C(=O)NCCN(CCN)CCN.Cl.Cl [Molecule 56] | Too high to measure | 
CC(C)[C@@H]1CC[C@@H](C)C[C@H]1C(=O)NC[C@H](NC(=O)[C@@H](C)NC(=O)OC(C)(C)C)c1ccccc1 [Molecule 57] | Too high to measure | 
CC(C)[C@@H]1CC[C@@H](C)C[C@H]1C(=O)NCCNC(=O)[C@@H]1C[C@H](C)CC[C@H]1C(C)C [Molecule 53] | Too high to measure | 

Next, values leading:

TRPM8 (EC50 values) | EC50 [nM] | SMILES
Too high to measure |  | CC(C)[C@@H]1CC[C@@H](C)C[C@H]1C(=O)NC[C@@H](NC(=O)[C@@H](N)Cc1ccccc1)c1ccccc1 [Molecule 55]
Too high to measure |  | CC(C)[C@@H]1CC[C@@H](C)C[C@H]1C(=O)NC[C@@H](NC(=O)OC(C)(C)C)c1ccccc1 [Molecule 58]
Too high to measure |  | CC(C)[C@@H]1CC[C@@H](C)C[C@H]1C(=O)NC[C@H](NC(=O)OC(C)(C)C)c1ccccc1 [Molecule 52]
 | 770 | CC(C)[C@@H]1CC[C@@H](C)C[C@H]1C(=O)NC[C@@H](N)c1ccccc1Cl [Example 34, hydrochloride]
